According to ChEMBL document CHEMBL1201862, “PubChem BioAssay data set” (2004):
The source made the active and inactive calls.

Legend:
[1] = molecular target: T1, Replicative DNA helicase DnaB (Mycobacterium tuberculosis, UniProt P9WMR3); assay: DnaB intein splicing inhibitors, dose response, biochemical, cell-free fluorescence (AID 449749); format: functional
T1 sequence (P9WMR3 whole entry): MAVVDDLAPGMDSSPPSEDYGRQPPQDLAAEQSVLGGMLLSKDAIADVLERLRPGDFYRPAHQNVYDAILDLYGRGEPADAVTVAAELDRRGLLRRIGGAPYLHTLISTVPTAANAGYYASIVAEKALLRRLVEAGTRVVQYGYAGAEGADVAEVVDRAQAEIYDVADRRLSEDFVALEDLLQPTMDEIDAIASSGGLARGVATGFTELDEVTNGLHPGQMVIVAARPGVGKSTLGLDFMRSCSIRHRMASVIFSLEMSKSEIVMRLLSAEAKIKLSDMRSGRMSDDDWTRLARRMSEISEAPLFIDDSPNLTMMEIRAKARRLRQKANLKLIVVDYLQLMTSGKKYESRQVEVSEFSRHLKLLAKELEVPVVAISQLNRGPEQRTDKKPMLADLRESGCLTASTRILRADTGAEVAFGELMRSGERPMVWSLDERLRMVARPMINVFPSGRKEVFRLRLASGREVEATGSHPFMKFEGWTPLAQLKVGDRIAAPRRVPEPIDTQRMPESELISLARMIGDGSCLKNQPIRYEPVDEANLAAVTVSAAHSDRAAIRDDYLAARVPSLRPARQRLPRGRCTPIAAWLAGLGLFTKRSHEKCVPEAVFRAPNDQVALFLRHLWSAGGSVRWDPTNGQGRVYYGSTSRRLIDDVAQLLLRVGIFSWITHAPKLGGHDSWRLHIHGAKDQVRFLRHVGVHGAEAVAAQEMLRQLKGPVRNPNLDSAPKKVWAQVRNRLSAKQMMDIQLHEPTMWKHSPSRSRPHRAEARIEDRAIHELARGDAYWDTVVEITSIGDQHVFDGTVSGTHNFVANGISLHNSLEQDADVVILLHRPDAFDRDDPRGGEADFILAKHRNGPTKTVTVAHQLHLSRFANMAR

Protein RecA = molecular target: T2, Protein RecA (Mycobacterium tuberculosis, UniProt P9WHJ3); assay: Fluorescence Cell-Free Homogeneous Dose Retest to Identify Inhibitors of RecA-Intein Splicing Activity. [Related pubchem assays (depositor defined):AID2097, AID2223, AID489010, AID492950]; format: functional
T2 sequence (P9WHJ3 whole entry): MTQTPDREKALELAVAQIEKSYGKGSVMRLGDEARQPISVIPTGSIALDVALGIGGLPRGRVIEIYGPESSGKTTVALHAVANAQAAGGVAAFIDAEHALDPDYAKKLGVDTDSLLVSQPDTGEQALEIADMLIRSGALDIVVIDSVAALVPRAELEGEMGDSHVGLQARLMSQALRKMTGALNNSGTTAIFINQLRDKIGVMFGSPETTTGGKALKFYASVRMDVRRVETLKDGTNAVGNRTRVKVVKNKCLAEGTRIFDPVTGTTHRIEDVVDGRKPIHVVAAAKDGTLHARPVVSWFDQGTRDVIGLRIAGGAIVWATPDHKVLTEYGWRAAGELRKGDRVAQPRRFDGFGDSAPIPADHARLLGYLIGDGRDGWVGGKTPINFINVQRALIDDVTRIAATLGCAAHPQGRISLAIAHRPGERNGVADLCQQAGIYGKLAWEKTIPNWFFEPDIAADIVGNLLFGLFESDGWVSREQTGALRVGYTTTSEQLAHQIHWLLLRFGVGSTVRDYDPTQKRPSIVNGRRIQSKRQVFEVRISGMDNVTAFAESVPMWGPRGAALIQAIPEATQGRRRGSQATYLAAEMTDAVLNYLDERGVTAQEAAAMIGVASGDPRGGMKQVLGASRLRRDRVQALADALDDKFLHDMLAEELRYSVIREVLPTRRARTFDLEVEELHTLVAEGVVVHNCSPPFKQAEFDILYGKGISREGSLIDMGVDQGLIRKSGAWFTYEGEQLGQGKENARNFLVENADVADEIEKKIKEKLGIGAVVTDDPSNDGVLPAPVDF

Nonstructural protein 1 = Nonstructural protein 1 (Influenza A virus, UniProt Q194T2); format: functional, Influenza A virus (A/California/07/2009(H1N1))
[2] = molecular target: T3, Apoptotic protease-activating factor 1 (Homo sapiens, UniProt O14727); format: functional
T3 sequence (O14727 whole entry): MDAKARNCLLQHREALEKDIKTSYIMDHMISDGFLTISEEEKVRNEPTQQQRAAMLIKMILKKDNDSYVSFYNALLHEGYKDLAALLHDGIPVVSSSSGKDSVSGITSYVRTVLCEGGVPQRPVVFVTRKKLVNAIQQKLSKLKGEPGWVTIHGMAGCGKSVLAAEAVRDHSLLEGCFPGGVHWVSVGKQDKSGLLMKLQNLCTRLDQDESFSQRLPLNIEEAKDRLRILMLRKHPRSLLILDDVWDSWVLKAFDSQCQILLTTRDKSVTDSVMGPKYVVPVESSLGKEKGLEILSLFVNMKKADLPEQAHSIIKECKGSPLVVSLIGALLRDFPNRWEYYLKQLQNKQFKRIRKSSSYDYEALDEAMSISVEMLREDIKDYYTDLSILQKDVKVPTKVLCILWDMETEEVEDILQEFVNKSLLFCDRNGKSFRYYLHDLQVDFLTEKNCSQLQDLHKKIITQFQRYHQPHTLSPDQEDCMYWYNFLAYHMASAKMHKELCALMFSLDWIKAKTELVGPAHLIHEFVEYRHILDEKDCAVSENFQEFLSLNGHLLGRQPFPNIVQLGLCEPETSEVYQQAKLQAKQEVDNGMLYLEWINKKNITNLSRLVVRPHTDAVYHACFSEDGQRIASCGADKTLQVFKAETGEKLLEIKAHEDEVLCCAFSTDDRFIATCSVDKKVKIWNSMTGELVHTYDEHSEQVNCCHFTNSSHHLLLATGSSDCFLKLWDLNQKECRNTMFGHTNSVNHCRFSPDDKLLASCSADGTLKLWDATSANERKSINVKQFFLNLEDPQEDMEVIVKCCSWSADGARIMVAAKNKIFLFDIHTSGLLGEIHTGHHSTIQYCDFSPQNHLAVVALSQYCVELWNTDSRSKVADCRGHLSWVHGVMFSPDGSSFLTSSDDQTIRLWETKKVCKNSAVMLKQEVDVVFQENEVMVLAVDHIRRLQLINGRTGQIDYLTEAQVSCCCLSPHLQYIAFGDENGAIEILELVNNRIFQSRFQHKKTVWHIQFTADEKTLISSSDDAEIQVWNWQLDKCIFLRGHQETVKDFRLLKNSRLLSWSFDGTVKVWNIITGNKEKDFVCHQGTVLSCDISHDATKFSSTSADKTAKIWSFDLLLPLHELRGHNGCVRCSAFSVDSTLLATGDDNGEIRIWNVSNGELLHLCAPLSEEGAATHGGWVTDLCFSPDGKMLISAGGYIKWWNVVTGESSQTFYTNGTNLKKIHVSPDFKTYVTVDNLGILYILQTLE

Vero = assay: viability of Vero cells under compound – cytotoxicity control for flavivirus capping enzyme inhibitors (AID 588742); format: functional; details: Chlorocebus sabaeus
Genome polyprotein = Genome polyprotein (dengue virus type 2, UniProt P29990); assay: flavivirus cap methylation enzyme inhibition – biochemical, confirmation dose response, primary screen (AID 588689); format: functional
[3] = molecular target: T4, Carboxy-terminal domain RNA polymerase II polypeptide A small phosphatase 1 (Homo sapiens, UniProt Q9GZU7); assay: CTDSP1 inhibitors, concentration-response, biochemical, absorbance readout, ultra-high-throughput screen actives (AID 540297); format: functional
T4 sequence (Q9GZU7 whole entry): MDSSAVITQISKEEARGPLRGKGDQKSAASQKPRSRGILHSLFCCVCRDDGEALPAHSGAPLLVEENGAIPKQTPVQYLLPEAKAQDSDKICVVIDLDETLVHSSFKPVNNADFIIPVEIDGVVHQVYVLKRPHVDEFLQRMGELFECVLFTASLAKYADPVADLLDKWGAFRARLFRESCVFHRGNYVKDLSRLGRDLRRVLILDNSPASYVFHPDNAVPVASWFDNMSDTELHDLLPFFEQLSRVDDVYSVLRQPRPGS

[4] = blockade of melanocortin 4 receptor signaling – cell-based, plate reader, cherry pick, counter-screen for LGR2 antagonist project, dose response (AID 743444); format: functional;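 note: transfected HEK 293 cells stimulated with alpha-MSH peptide; potency of inhibitors of the alpha-MSH evoked signal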
[5] = blockers of bursicon-stimulated LGR2 cAMP reporter – cell-based, HEK293, CRE-luciferase reporter, cherry pick, set 2, dose response (AID 743343); format: functional;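 note: transfected cells were stimulated with diluted bursicon conditioned medium after compound addition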
HEK293 = assay: EBV LMP1 TES2 canonical NF-kB signalling blockers – cell-based, HEK293, luciferase, cherry-pick, dose response (AID 588343); format: functional; details: Homo sapiens
[6] = blockers of HIV-1 ZM109 envelope-driven cell-cell fusion – HeLa effector, CEM target cells, luciferase, cherry-pick, dose response (AID 652058); format: functional, cell-based;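 note: luciferase signal from HIV-1 Env mediated cell-cell fusion of effector and target cells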
INS1 = assay: INS-1E survival protection against cytokine death – cell-based, luminescence, retest, dose response (AID 449756); format: functional; details: Rattus norvegicus;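 note: cell death triggered by IL-1 beta plus TNF-alpha plus IFN-gamma mixture; protective hits raise ATP signal compared with cytokine alone wells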
[7] = HIV-1 AD8 envelope cell-cell fusion blockers – cherry-pick, dose response (AID 652062); format: functional, cell-based;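 note: luciferase signal from cell-cell fusion driven by HIV-1 clade B AD8 Env; potency is for inhibitors of fusion seen as a drop in luminescence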
Cytochrome P450 1A2 = molecular target: T5, Cytochrome P450 1A2 (Homo sapiens, UniProt P05177);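 note: PubChem cytochrome P450 panel assay, CYP1A2 panel member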
T5 sequence (P05177 whole entry): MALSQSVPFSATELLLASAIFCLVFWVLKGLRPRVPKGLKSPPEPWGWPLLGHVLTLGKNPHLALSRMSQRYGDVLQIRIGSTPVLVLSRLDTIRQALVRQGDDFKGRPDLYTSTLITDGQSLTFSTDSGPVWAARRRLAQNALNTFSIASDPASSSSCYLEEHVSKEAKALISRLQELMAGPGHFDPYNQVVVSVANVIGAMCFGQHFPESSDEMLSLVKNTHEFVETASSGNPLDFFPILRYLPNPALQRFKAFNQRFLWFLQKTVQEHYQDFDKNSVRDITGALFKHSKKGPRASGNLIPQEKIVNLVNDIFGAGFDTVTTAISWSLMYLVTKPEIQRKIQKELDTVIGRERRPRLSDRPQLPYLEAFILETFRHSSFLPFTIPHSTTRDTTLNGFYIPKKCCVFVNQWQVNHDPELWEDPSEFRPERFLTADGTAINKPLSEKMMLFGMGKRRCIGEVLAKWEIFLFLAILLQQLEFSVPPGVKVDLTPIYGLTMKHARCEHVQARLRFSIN

[8] = blockers of HIV-1 envelope-mediated cell-cell fusion – cherry-pick, dose response (AID 652057); format: functional, cell-based
[9] = Luminescence Cell-Based Dose Retest to Confirm Inhibitors of Cancer Stem Cells. [Related pubchem assays (depositor defined):AID2717, AID2721]; format: functional; details: Homo sapiens
Paired box protein Pax-8 = Paired box protein Pax-8 (Homo sapiens, UniProt Q06710); assay: PAX8 transcriptional activity inhibition in RMG-I – RMG-I cells, luciferase, cherry-pick, dose response (AID 687027); format: functional, cell-based;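 note: luciferase reporter driven by Pax8 target thyroperoxidase promoter measured by SteadyGlo luminescence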
[10] = loss of viability in HepG2 cells – cell-based, CellTiter-Glo, cherry-picked, cytotoxicity control for Shn3 inhibitor project, dose response (AID 624134); format: functional
[11] = reduction of Shn3 3'UTR-driven luciferase in osteoblasts – cell-based, Clone20 osteoblasts, firefly luciferase, cherry-picked, dose response (AID 624132); format: functional;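 note: firefly luciferase luminescence from reporter carrying the Shn3 3'UTR in osteoblasts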
[12] = general cell-killing toxicity readout – plate reader, dry powder samples, cytotoxicity control for PAX8 inhibitor project, dose response (AID 743021); format: functional, cell-based

Paired box protein Pax-8, sequence (Q06710 whole entry): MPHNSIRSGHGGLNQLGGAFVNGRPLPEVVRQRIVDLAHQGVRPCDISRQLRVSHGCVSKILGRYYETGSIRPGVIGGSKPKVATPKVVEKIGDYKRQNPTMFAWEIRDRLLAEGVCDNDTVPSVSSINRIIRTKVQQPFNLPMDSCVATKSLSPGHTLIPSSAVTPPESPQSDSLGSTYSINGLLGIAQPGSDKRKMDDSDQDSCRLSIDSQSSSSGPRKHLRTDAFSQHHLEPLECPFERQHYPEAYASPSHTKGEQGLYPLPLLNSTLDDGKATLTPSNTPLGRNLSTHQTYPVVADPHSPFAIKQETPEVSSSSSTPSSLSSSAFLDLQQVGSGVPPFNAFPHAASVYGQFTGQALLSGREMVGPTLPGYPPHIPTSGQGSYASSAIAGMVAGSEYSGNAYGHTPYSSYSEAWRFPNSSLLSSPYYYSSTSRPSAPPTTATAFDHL
Genome polyprotein, sequence (P29990 2492-3391 limits assumed): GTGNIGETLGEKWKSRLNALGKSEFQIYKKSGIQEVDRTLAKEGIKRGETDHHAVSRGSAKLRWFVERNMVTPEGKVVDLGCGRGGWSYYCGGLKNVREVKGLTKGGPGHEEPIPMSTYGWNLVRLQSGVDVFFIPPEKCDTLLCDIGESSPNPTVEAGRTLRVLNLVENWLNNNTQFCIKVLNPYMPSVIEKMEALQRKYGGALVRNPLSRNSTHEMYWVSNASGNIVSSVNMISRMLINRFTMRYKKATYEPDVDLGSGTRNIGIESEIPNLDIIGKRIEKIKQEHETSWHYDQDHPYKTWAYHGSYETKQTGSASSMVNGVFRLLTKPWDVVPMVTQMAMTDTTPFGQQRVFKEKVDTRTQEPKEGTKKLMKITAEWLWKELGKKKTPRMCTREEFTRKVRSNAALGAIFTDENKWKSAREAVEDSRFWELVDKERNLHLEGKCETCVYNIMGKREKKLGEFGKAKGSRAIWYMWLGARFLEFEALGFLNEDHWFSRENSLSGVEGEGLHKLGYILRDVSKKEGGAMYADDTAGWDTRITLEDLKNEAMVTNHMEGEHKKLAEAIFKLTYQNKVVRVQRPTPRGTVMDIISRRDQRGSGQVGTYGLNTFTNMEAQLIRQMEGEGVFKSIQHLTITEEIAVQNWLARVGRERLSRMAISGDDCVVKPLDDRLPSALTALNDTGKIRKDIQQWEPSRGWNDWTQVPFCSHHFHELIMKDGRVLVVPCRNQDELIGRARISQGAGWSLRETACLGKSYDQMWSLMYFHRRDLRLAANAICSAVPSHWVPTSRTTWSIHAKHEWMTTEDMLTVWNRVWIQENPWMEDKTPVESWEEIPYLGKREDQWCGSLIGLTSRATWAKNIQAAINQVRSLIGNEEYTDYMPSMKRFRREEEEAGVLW
Nonstructural protein 1, sequence (Q194T2 whole entry): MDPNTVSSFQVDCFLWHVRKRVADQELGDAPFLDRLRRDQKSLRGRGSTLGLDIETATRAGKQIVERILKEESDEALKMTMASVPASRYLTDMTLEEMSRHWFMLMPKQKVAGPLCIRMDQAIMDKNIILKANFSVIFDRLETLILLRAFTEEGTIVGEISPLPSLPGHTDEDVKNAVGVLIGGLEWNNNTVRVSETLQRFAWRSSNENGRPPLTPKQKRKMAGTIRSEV

Cc1cc(C(=O)N/N=C/c2c(C)nn(-c3ccccc3)c2O)[nH]n1
AC50 [1]: 226 µM (active) | EC50 (Protein RecA): 27 µM (active) | IC50 (Nonstructural protein 1): 11.8 µM (active) | IC50 [2]: 6.97 µM (active)

c1coc(-c2nc3nc4ccccc4n3nc2-c2ccco2)c1
CC50 (Vero): > 40 µM (active) | IC50 (Genome polyprotein): 99.3 µM (active)

Cc1cccc(C(=O)Nc2ccc(C(=O)N/N=C/c3ccco3)cc2)c1
IC50 [3]: 4.79 µM (active)

Cc1c(NC(=O)c2cccc(NC(=O)COc3ccccc3C#N)c2)c(=O)n(-c2ccccc2)n1C
AC50 [4]: 4.53 µM (active) | AC50 [5]: 2.66 µM (active) | AC50 (HEK293): 5.77 µM (active)

c1ccc2c(c1)nc(N1CCCCCC1)c1ccccc12
IC50 [3]: 17.4 µM (active)

CCN(C1CCCCC1)S(=O)(=O)c1ccc(S(=O)(=O)NCc2ccncc2)cc1
AC50 [6]: 3.52 µM (active) | AC50 (INS1): 5.12 µM (active) | AC50 [7]: 7.99 µM (active) | AC50 (Cytochrome P450 1A2): 15.8 µM (inconclusive)

COc1ccc(S(=O)(=O)N(C)C[C@@H]2Oc3ccc(NC(=O)C4CCCCC4)cc3CC(=O)N([C@H](C)CO)C[C@@H]2C)cc1
AC50 [6]: 2.96 µM (active) | AC50 [7]: 4.51 µM (active) | AC50 [8]: 0.574 µM (active)

O=c1cc(-c2ccc(O)cc2)oc2ccc3ccccc3c12
AC50 [9]: 2.15 µM (active) | AC50 (Paired box protein Pax-8): 8.88 µM (active) | AC50 [10]: 41.6 µM (active) | AC50 [11]: 5.41 µM (active) | AC50 [12]: 31.3 µM (active)
